Where no end group is shown, it is not given here. [ ]: non-standard residue; d: D form.
How the values were obtained:
[1] = tested on: rat pituitary cells; assay: Pituitary cell desensitization - growth hormone release assay; format: cell-based
Description: The experiment was designed so that cultures were exposed to a growth hormone secretagogue for 60 min, then growth hormone release was measured during a subsequent 15 min exposure to the same or different growth hormone secretagogue.
Anterior pituitary glands from male Wistar rats (150-175 g, Charles River, Laboratories, Wilmington, Mass.) were collected in Hank's Balanced Salt Solution (#14170, Life Technologies, Gaithersburg, Md.). Glands were minced with a scalpel, then incubated with bacterial protease (Type IX, EC3.4.24.4, #P-6141, Sigma Chemicals, Milwaukee, Wis.) at 10 U/ml to release individual cells. Cells were pelleted by centrifugation at 200×g for 15 min, then suspended in culture medium and plated at a density of 6.0-6.5×10^4 cells per 0.5 ml per well in 48-well tissue culture plates (#3848, Costar Corporation, Cambridge, Mass.). Culture medium consisted of D-MEM (Dulbecco's Modified Eagle Medium) with high glucose and sodium bicarbonate (#11965) supplemented with 10% heat-inactivated horse serum (#26050, Life Technologies, Gaithersburg, Md.), 2.5% fetal bovine serum (#16140, Life Technologies, Gaithersburg, Md.), 0.1 mM MEM non-essential amino acids (#11140, Life Technologies, Gaithersburg, Md.), 100 U/ml nystatin (#15340, Life Technologies, Gaithersburg, Md.) and 50 ug/ml gentamicin sulfate (#15750, Life Technologies, Gaithersburg, Md.). Cultures were maintained for 3-4 days in a humidified, 5% CO2/95% air incubator at 37° C. prior to performing assays for growth hormone release.
For growth hormone release assays, cultures were pre-equilibrated at 37° C. in pre-warmed release medium for 1 h in the presence of a growth hormone secretagogue or excipient (Pretreatment). Release medium consisted of Phenol Red-free D-MEM without bicarbonate (#23800, Life Technologies, Gaithersburg, Md.) supplemented with 25 mM N-[2-hydroxyethyl]piperazine-N′-[2-ethanesulfonic acid] (HEPES), 4.5 g/L glucose, 0.11 g/L sodium pyruvate, 0.584 g/L […] and 0.5% bovine serum albumin (#A-7888, Sigma Chemicals, Milwaukee, Wis.), adjusted to pH 7.4. After pretreatment, the medium was removed and replaced with fresh pre-warmed release medium containing a growth hormone secretagogue or excipient at 0.5 ml/well for 15 min (Treatment). Medium from the Treatment was collected, centrifuged to remove any cells, then assayed for growth hormone content by a conventional double-antibody radioimmunoassay using monkey anti-growth hormone antisera (NIDDK anti-rGH-S-5) and reference rat growth hormone standard (NIDDK-rGH-RP) from Dr. A. F. Parlow, Harbor-UCLA Medical Center, Torrance, Calif. Immune complexes were precipitated using goat anti-monkey immunoglobulin G (#55418, Cappel, Durham, N.C.).
Growth hormone secretagogue solutions were prepared at 1000 times the desired concentration and diluted into pre-warmed release medium immediately before use. Peptides such as His-D-Trp-Ala-Trp-Ala-Trp-D-Phe-Lys-NH2 (GHRP-6, #8061, Peninsula Laboratories, Belmont, Calif.) and rat growth hormone releasing factor (GHRH, #8068, Peninsula Laboratories, Belmont, Calif.) were dissolved at 100 μM in 4 mM acetic acid, 10% ethanol, 0.1% bovine serum albumin; other growth hormone secretagogues were dissolved at 5 mM in dimethyl sulfoxide.

[2] = tested on: rat pituitary cells; assay: Pituitary cell desensitization - intracellular calcium assay; format: cell-based
From the text: Thus, it appears that sustained release formulations would not provide the desired in vivo response. The experiment was designed so that changes in intracellular calcium concentration could be continuously monitored during successive exposures of the same cells to the indicated test substances.
Rat pituitary cells were isolated as described in Example 3 and plated onto poly-D-lysine-coated glass coverslips, one coverslip per well in 12-well plates, at a density of 3-4×10^5 cells per well. Assays were performed 3-4 days after plating. Cells were loaded with 5 μM fura-2 AM (Molecular Probes, Eugene, Oreg.), a calcium-sensitive fluorescent dye, by incubation for 30 min at room temperature. Fura-2 was dissolved in dimethylsulfoxide at 5 mM, then diluted into KRH buffer (115 mM NaCl, 5.4 mM KCl, 1.8 mM CaCl2, 1 mM MgCl2, 0.96 mM NaH2PO4, 25 mM HEPES, 6 mM glucose and 0.05% bovine serum albumin, adjusted to pH 7.3)
To assay changes in intracellular calcium concentration, a coverslip with attached cells was mounted in a perfusion chamber on the stage of an inverted microscope (Zeiss Axiovert 135 with epifluorescence, Geschaftsbereich Mikroscopie, Oberkochen, Germany) and continuously superfused at room temperature. After superfusion with KRH for 1-2 min, baseline fluorescence was recorded. Each test substance was applied for 2 min, followed by washout with KRH prior to stimulation with the next test substance. Up to 20 individual cells per field were selected for recording and were excited alternately at wavelengths of 380 nm or 340 nm (slit width 15 nm). Fluorescence emission at 510 nm was collected at 5 sec intervals by a low light CCD camera (Hamamatsu Photonics, Hamamatsu City, Japan), and digitized images for the two excitation wavelengths were analyzed using Videoprobe software (ETM Systems, Irvine, Calif.) to determine the 340 nm/380 nm fluorescence ratio for individual cells during each time interval. The 340 nm/380 nm fluorescence ratio is proportional to the concentration of intracellular calcium.

Compound: GHRH: rat growth hormone releasing factor (GHRH, #8068, Peninsula Laboratories) (HADAIFTSSYRRILGQLYARKLLHEIMNRQQGERNQEQRSRFN; Somatoliberin; UniProt P09916 31-73, looked up) [reference compound]
- GH release ([1]; pretreatment 100 nM GHRH 60 min, treatment none): 12.67 ± 3.31 ng/mL/15 min

Compound: [Cl-].[K+] [KCl, reference compound]
- response of the same (refractory) cells ([2]; after re-exposure to Compound A): remained responsive

Compound: H[dW]AWAW[dF]K-NH2 [GHRP-6, reference compound]
- GH release ([1]; pretreatment 100 nM GHRP-6 60 min, treatment 100 nM GHRP-6 15 min): 7.83 ± 0.98 ng/mL/15 min
- GH release ([1]; pretreatment 100 nM GHRP-6 60 min, treatment none): 9.06 ± 1.87 ng/mL/15 min
- GH release ([1]; pretreatment none, treatment 100 nM GHRP-6 15 min, mean ± SD, n = 4): 31.01 ± 8.46 ng/mL/15 min
- cellular responses (intracellular calcium) on repeated exposure ([2]; successive 2 min exposures with washout): homologous desensitization

From patent publication US6641840B2, “Sustained release formulations for growth hormone secretagogues” (Pfizer Inc., priority 2000, dated 2003)
